Experimental data from patent publication US11780845B2 (Relay Therapeutics, Inc., priority 2019, dated 2023).

Target: FGFR2 (Homo sapiens (Human), UniProt P21802)
Assay: FGFR2 Biochemical Caliper Assay
Protocol: Compounds of the present invention were also tested in a FGFR2 Biochemical Caliper Assay. Compounds were prepared in 10 mM DMSO solution and serially diluted into 11 concentrations by 3-fold dilution. […] 5 uL of ATP solution (100 uM) was added to start the reaction and the plate was incubated for 90 minutes, then 70 uL of stopping buffer (0.5M EDTA) was added to terminate the reaction. Each well was analyzed using EZ reader.

Chain of FGFR2 (P21802 22-821): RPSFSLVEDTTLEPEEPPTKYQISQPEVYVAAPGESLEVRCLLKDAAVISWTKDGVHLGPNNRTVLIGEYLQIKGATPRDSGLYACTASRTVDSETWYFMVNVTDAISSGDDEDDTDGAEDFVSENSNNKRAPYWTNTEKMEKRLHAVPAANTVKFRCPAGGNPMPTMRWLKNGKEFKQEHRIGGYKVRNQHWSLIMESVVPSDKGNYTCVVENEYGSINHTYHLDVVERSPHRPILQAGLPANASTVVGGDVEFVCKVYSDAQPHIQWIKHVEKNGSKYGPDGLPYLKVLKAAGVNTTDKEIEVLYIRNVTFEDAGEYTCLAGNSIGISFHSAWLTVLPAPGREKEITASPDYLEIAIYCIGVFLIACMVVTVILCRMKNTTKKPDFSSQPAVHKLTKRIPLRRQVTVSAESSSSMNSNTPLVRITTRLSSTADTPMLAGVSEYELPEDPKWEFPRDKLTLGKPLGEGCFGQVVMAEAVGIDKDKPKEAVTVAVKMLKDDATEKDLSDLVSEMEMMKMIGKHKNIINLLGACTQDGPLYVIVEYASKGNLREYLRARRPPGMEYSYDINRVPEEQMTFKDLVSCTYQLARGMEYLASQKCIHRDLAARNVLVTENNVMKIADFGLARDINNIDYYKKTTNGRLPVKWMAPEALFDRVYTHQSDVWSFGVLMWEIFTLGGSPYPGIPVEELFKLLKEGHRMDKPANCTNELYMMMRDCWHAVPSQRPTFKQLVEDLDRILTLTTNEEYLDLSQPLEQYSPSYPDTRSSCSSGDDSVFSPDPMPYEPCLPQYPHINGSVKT

SMILES	IC50 [nM]
C=CC(=O)Nc1ccc(-c2c(-c3ccc(Sc4ncccn4)c(OC)c3)c3c(N)ncnc3n2C)cc1 [Example 82]	< 100
CC#CC(=O)Nc1ccc(-c2c(-c3ccc(Oc4ncccn4)cc3)c3c(N)ncnc3n2C)cc1 [Example 84]	< 100
C=C(C)C(=O)Nc1ccc(-c2c(-c3ccc(S(=O)(=O)N4CCCC4)cc3)c3c(N)ncnc3n2C)cc1 [Example 85]	100 to 250
C=CC(=O)Nc1ccc(-c2c(-c3ccc(Oc4ncc(N)cn4)c(OC)c3)c3c(N)ncnc3n2C)cc1 [Example 87]	< 100
C=C(C)C(=O)Nc1ccc(-c2c(-c3ccc(Oc4cccc(C)n4)cc3)c3c(N)ncnc3n2C2CCOCC2)cc1 [Example 88]	100 to 250
C=C(C)C(=O)Nc1ccc(-c2c(-c3ccc(Oc4cccc(C)n4)cc3)c3c(N)ncnc3n2CCN2CCN(C)CC2)cc1 [Example 89]	< 100
C=C(C)C(=O)Nc1ccc(-c2c(-c3ccc(Oc4cnc(C)cn4)c(F)c3)c3c(N)ncnc3n2C)cc1 [Example 92]	1000 to 100000
C=C(C)C(=O)Nc1ccc(-c2c(-c3ccc(C(O)c4ncccn4)c(OC)c3)c3c(N)ncnc3n2C)cc1 (stereo not shown) [Example 93]	250 to 1000
C=C(C)C(=O)Nc1ccc(-c2c(-c3ccc(Oc4ccc(Cl)cn4)cc3)c3c(N)ncnc3n2C)cc1 [Example 97]	250 to 1000
C=CC(=O)Nc1ccc(-c2c(C3CCN(C)CC3)c3c(N)ncnc3n2C)cc1 [Example 99]	1000 to 100000
C=C(C)C(=O)Nc1ccc(-c2c(-c3ccc(Oc4ncc(Cl)cn4)c(OC)c3)c3c(N)ncnc3n2C)cc1 [Example 102]	100 to 250
C=CC(=O)Nc1ccc(-c2c(C3CCN(C(=O)CNC(=O)NC)CC3)c3c(N)ncnc3n2C)cc1 [Example 104]	1000 to 100000
C=CC(=O)Nc1ccc(-c2c(C3CCN(C(=O)C(C)CCNC)CC3)c3c(N)ncnc3n2C)cc1 (stereo not shown) [Example 105]	250 to 1000
C=C(C)C(=O)Nc1ccc(-c2c(-c3ccc(Cc4ncccn4)c(OC)c3)c3c(N)ncnc3n2C)cc1 [Example 106]	1000 to 100000
C=C(C)C(=O)Nc1ccc(-c2c(-c3cc(F)c(Oc4ccccn4)c(F)c3)c3c(N)ncnc3n2C)cc1 [Example 107]	250 to 1000
C=C(C)C(=O)Nc1ccc(-c2c(-c3ccc(Oc4ccc(C)cn4)c(O)c3)c3c(N)ncnc3n2C)cc1 [Example 108]	1000 to 100000
C=C(C)C(=O)Nc1ccc(-c2c(-c3ccc(Oc4ncc(F)cn4)c(C)c3)c3c(N)ncnc3n2C)cc1 [Example 109]	100 to 250
C=C(C)C(=O)Nc1ccc(-c2c(-c3ccc(Oc4ccc(F)cn4)c(O)c3)c3c(N)ncnc3n2C)cc1 [Example 111]	1000 to 100000
C=C(C)C(=O)Nc1ccc(-c2c(-c3ccc(Oc4ccc(F)nc4)c(O)c3)c3c(N)ncnc3n2C)cc1 [Example 112]	1000 to 100000
C=C(C)C(=O)Nc1ccc(-c2c(-c3ccc(Oc4ncc(Cl)cn4)c(F)c3)c3c(N)ncnc3n2C)cc1 [Example 115]	250 to 1000
C=C(C)C(=O)Nc1ccc(-c2c(-c3cc(F)c(Oc4cnccn4)c(F)c3)c3c(N)ncnc3n2C)cc1 [Example 118]	1000 to 100000
C=C(C)C(=O)Nc1ccc(-c2c(-c3ccc(Oc4ccc(Cl)cn4)c(O)c3)c3c(N)ncnc3n2C)cc1 [Example 119]	1000 to 100000
C=C(C)C(=O)Nc1ccc(-c2c(-c3ccc(Oc4ccc(Cl)c(C)n4)cc3)c3c(N)ncnc3n2C)cc1 [Example 122]	250 to 1000
C=C(C)C(=O)Nc1ccc(-c2c(-c3ccc(OCC(=O)O)cc3)c3c(N)ncnc3n2C)cc1 [Example 124]	1000 to 100000

SMILES	IC50 [nM]
C=C(C)C(=O)Nc1ccc(-c2c(-c3ccc4c(c3)CC(=O)N4)c3c(N)ncnc3n2C)cc1 [Example 125]	1000 to 100000
C=C(C)C(=O)Nc1ccc(-c2c(-c3cnn(Cc4cccnc4)c3)c3c(N)ncnc3n2C)cc1 [Example 126]	1000 to 100000
C=C(C)C(=O)Nc1ccc(-c2c(-c3cc(N)c(Oc4ccccn4)c(F)c3)c3c(N)ncnc3n2C)cc1 [Example 127]	100 to 250
C=C(C)C(=O)Nc1ccc(-c2c(-c3cc(C)c(Oc4ccccn4)c(O)c3)c3c(N)ncnc3n2C)cc1 [Example 129]	250 to 1000
C=C(C)C(=O)Nc1ccc(-c2c(-c3ccc(CC(=O)N(C)C)cc3)c3c(N)ncnc3n2C)cc1 [Example 130]	1000 to 100000
C=C(C)C(=O)Nc1ccc(-c2c(-c3ccc(N(C)C)nc3)c3c(N)ncnc3n2C)cc1 [Example 131]	1000 to 100000
C=C(C)C(=O)Nc1ccc(-c2c(-c3ccc(-c4nnn(C)n4)nc3)c3c(N)ncnc3n2C)cc1 [Example 132]	1000 to 100000
C=C(C)C(=O)Nc1ccc(-c2c(-c3ccc(OCC4CC4)cc3)c3c(N)ncnc3n2C)cc1 [Example 133]	100 to 250
C=C(C)C(=O)Nc1ccc(-c2c(-c3cncc(CO)c3)c3c(N)ncnc3n2C)cc1 [Example 134]	1000 to 100000
C=C(C)C(=O)Nc1ccc(-c2c(C3=CCCN(C(C)=O)C3)c3c(N)ncnc3n2C)cc1 [Example 136]	1000 to 100000
C=C(C)C(=O)Nc1ccc(-c2c(-c3ccc(OCc4ccccc4)nc3)c3c(N)ncnc3n2C)cc1 [Example 138]	1000 to 100000
C=C(C)C(=O)Nc1ccc(-c2c(-c3cc(OC)ncc3F)c3c(N)ncnc3n2C)cc1 [Example 139]	1000 to 100000
C=C(C)C(=O)Nc1ccc(-c2c(-c3ccc(C(=O)N4CCC(F)(F)CC4)cc3)c3c(N)ncnc3n2C)cc1 [Example 142]	1000 to 100000
C=C(C)C(=O)Nc1ccc(-c2c(-c3cc(OC)ncc3OC)c3c(N)ncnc3n2C)cc1 [Example 144]	1000 to 100000
C=C(C)C(=O)Nc1ccc(-c2c(-c3ccc(CN4CC[C@@H](O)C4)cc3)c3c(N)ncnc3n2C)cc1 [Example 146]	1000 to 100000
C=C(C)C(=O)Nc1ccc(-c2c(-c3ccc4c(c3)CCC(=O)N4)c3c(N)ncnc3n2C)cc1 [Example 147]	1000 to 100000
C=C(C)C(=O)Nc1ccc(-c2c(-c3ccc(-c4ncc[nH]4)cc3)c3c(N)ncnc3n2C)cc1 [Example 149]	250 to 1000
C=CC(=O)Nc1ccc(-c2c(-c3cnn(CC4CCNCC4)c3)c3c(N)ncnc3n2C)cc1 [Example 151]	250 to 1000
C=C(C)C(=O)Nc1ccc(-c2c(-c3ccn4ccnc4c3)c3c(N)ncnc3n2C)cc1 [Example 153]	1000 to 100000
C=C(C)C(=O)Nc1ccc(-c2c(-c3ccc(Cn4cc(C)cn4)c(F)c3)c3c(N)ncnc3n2C)cc1 [Example 158]	1000 to 100000
C=C(C)C(=O)Nc1ccc(-c2c(-c3ccc(CN4CCC(F)(F)CC4)c(F)c3)c3c(N)ncnc3n2C)cc1 [Example 159]	1000 to 100000
C=C(C)C(=O)Nc1ccc(-c2c(-c3cc(O)c(Oc4ccccn4)c(Cl)c3)c3c(N)ncnc3n2C)cc1 [Example 162]	250 to 1000
C=C(C)C(=O)Nc1ccc(-c2c(-c3cnn(C4CN(C)C4)c3)c3c(N)ncnc3n2C)cc1 [Example 163]	1000 to 100000
C=C(C)C(=O)Nc1ccc(-c2c(-c3ccc4cn(C)nc4c3)c3c(N)ncnc3n2C)cc1 [Example 164]	100 to 250

SMILES	IC50 [nM]
C=C(C)C(=O)Nc1ccc(-c2c(-c3ccc(-n4cc(C)cn4)nc3)c3c(N)ncnc3n2C)cc1 [Example 165]	250 to 1000
C=C(C)C(=O)Nc1ccc(-c2c(C3=CC4CCC(C3)N4)c3c(N)ncnc3n2C)cc1 (stereo not shown) [Example 168]	100 to 250
C=C(C)C(=O)Nc1ccc(-c2c(-c3ccc4c(cnn4C(C)C)c3)c3c(N)ncnc3n2C)cc1 [Example 170]	250 to 1000
C=C(C)C(=O)Nc1ccc(-c2c(-c3ccc(CN4CCN(C)CC4)cc3)c3c(N)ncnc3n2C)cc1 [Example 172]	1000 to 100000
C=C(C)C(=O)Nc1ccc(-c2c(-c3ccc(CC(=O)N(C)C)c(F)c3)c3c(N)ncnc3n2C)cc1 [Example 173]	1000 to 100000
C=C(C)C(=O)Nc1ccc(-c2c(-c3ccc4c(c3)OCCN4C)c3c(N)ncnc3n2C)cc1 [Example 175]	< 100
C=C(C)C(=O)Nc1ccc(-c2c(-c3ccc(N)c(OC(F)(F)F)c3)c3c(N)ncnc3n2C)cc1 [Example 177]	1000 to 100000
C=C(C)C(=O)Nc1ccc(-c2c(-c3ccc(-c4nccs4)cc3)c3c(N)ncnc3n2C)cc1 [Example 178]	250 to 1000
C=C(C)C(=O)Nc1ccc(-c2c(-c3cnn(Cc4ccncc4)c3)c3c(N)ncnc3n2C)cc1 [Example 179]	1000 to 100000
C=C(C)C(=O)Nc1ccc(-c2c(-c3ccc(S(C)(=O)=O)cc3C)c3c(N)ncnc3n2C)cc1 [Example 181]	1000 to 100000
C=C(C)C(=O)Nc1ccc(-c2c(-c3ccc(=O)n(Cc4ccccc4)c3)c3c(N)ncnc3n2C)cc1 [Example 182]	1000 to 100000
C=C(C)C(=O)Nc1ccc(-c2c(-c3cccc(C(=O)N4CCCC4)c3)c3c(N)ncnc3n2C)cc1 [Example 183]	1000 to 100000
C=C(C)C(=O)Nc1ccc(-c2c(-c3ccc(-n4cncn4)nc3)c3c(N)ncnc3n2C)cc1 [Example 184]	1000 to 100000
C=C(C)C(=O)Nc1ccc(-c2c(-c3ccc4[nH]c(C(=O)O)cc4c3)c3c(N)ncnc3n2C)cc1 [Example 185]	1000 to 100000
C=C(C)C(=O)Nc1ccc(-c2c(-c3ccc(OC4CCN(C)CC4)nc3)c3c(N)ncnc3n2C)cc1 [Example 187]	1000 to 100000
C=C(C)C(=O)Nc1ccc(-c2c(-c3ccc4c(c3)CCC4C(=O)N(C)C)c3c(N)ncnc3n2C)cc1 (stereo not shown) [Example 191]	1000 to 100000
C=C(C)C(=O)Nc1ccc(-c2c(-c3ccc(-n4cccn4)nc3)c3c(N)ncnc3n2C)cc1 [Example 192]	1000 to 100000
C=C(C)C(=O)Nc1ccc(-c2c(-c3ccc4c(c3)CS(=O)(=O)C4)c3c(N)ncnc3n2C)cc1 [Example 193]	1000 to 100000
C=C(C)C(=O)Nc1ccc(-c2c(-c3ccc(OCC)c(OCC)c3)c3c(N)ncnc3n2C)cc1 [Example 196]	1000 to 100000
C=C(C)C(=O)Nc1ccc(-c2c(-c3ccc(CN(C)C(C)=O)cc3)c3c(N)ncnc3n2C)cc1 [Example 198]	1000 to 100000
C=C(C)C(=O)Nc1ccc(-c2c(-c3cc(O)c(Oc4ncccn4)c(CC)c3)c3c(N)ncnc3n2C)cc1 [Example 200]	1000 to 100000
C=C(C)C(=O)Nc1ccc(-c2c(-c3ccc4[nH]c(=O)n(C)c4c3)c3c(N)ncnc3n2C)cc1 [Example 203]	1000 to 100000
